# From patent US20230382871A1, “CSF1R KINASE INHIBITOR AND USE THEREOF” (SHANGHAI INSTITUTE OF MATERIA MEDICA, CHINESE ACADEMY OF …, priority 2020, published 2023)
# Where “and” joins values, the source holds several entries; their conditions need not be identical. Equal values may be shown once.
# How the values were obtained:
# recombinant CSF1R kinase = recombinant CSF1R kinase (Homo sapiens (Human), UniProt P07333); experiment: CSF1R kinase activity ELISA assay; format: biochemical; details: poly(Glu, Tyr)4:1 substrate, ATP 5 μM, read-out: IC50, inhibition of CSF1R kinase activity
# [1] = tested on: M2-type macrophage marker CD206 in U87MG tumor tissues; experiment: Immunohistochemistry of M2-type macrophage marker CD206 in U87MG tumor tissues; format: in vivo, nude mice
# Procedure: (§1) At the end of the in vivo experiments, U87MG and HT-29 xenografts in nude mice were removed and fixed with […] to prepare paraffin sections.
# (§2) Expression of individual proteins was assessed using multiplicative quick score method (MQS). This evaluation method takes into account both the staining intensity and the staining range. The method estimates the proportion of positive cells and gives a range score from 1 to 6 (1=1%-4%; 2=5%-19%; 3=20%-39%; 4=40%-59%; 5=60%-79%; 6=80%-100%). The average intensity score of positive stained cells was 0 to 3 (0=no staining; 1=weak staining; 2=moderate staining; 3=strong staining). The total score a (minimum 0 and maximum 18) is then calculated by multiplying the range score by the intensity score.
# (§3) For detecting the changes in the macrophage marker F4/80 and M2-type macrophage marker CD206 in the U87MG tumor tissues, quantitative analysis (solvent: n=6, blank preparation: n=6, Compound I (10 mg/kg): n=6, Compound I (20 mg/kg): n=6, Compound I (40 mg/kg): n=6, Axitinib: n=4) was performed on all sections and the experimental data were analyzed for significant differences using the t-test. * denotes p<0.05 as compared with the blank preparation group, ** denotes p<0.01 as compared with the blank preparation group, and denotes p<0.001 as compared with the blank preparation group.
# [2] = tested on: phosphorylated CSF1R (p-CSF1R) in BMDM; experiment: Western blot of CSF1-stimulated CSF1R phosphorylation in BMDM; format: cell-based, mouse
# Procedure: Bone marrow-derived macrophages, after induction by CSF1 for 5 to 7 days, were centrifuged to remove the previous medium. 2 mL of a serum-free medium was added. […] CSF1 factor was added at a final concentration of 50 ng/mL for stimulation for 15 minutes. The culture medium was discarded, and cells were washed three times with pre-cooled PBS. Then, the cells were lysed by adding 1×SDS gel loading buffer. The cell lysates were heated in a boiling water bath for 15 min, and then stored at −20° C.
# A protein sample as described above was subjected to SDS-PAGE electrophoresis. Then, the protein was transferred to a nitrocellulose membrane using a semi-dry electrotransfer system. The nitrocellulose membrane was placed in a blocking solution (5% skim milk in TBS-T) and incubated for 2 h at room temperature. Then, the membrane was allowed to react with a primary antibody overnight at 4° C. After the membrane was washed with TBS-T for three times with 15 min each time, the membrane was allowed to react in a secondary antibody dilution at room temperature for 1-2 h. […]
# The inhibitory effect of Compound I on CSF1R and its signaling pathway in mouse primary macrophages was detected by immunoblotting assays. Each experiment was independently repeated three times and all experimental results were quantified. […]
# [3] = tested on: M2-type macrophage marker CD206 in HT-29 tumor tissues; experiment: Immunohistochemistry of M2-type macrophage marker CD206 in HT-29 tumor tissues; format: in vivo, nude mice; details: Compound I 5, 10, 20 mg/kg; Axitinib 40 mg/kg
# Procedure: as §1, §2
# as §3, with “the HT-29” for “the U87MG”, “(solvent: n=12,” for “(solvent: n=6,”, “preparation: n=6, Compound I (5 mg/kg):” for “preparation:”, “n=6,” for “n=6, Compound I (40 mg/kg): n=6,”, “Axitinib: n=6)” for “Axitinib: n=4)”
# [4] = tested on: solid tumors, such as brain gliomas; experiment: Clinical trial, preliminary efficacy; format: in vivo; details: particularly high-grade brain gliomas, data not shown
# [5] = tested on: human glioma U87MG brain in situ transplantation; experiment: Survival in U87MG brain in situ transplantation model in nude mice; format: in vivo, BALB/cA nude mice; details: for ILS (%), Increase in Life Span: vs solvent group MST
# [6] = 40 mg/kg, implantation day as Day 0
# recombinant CSF1R kinase, sequence (P07333 20-972): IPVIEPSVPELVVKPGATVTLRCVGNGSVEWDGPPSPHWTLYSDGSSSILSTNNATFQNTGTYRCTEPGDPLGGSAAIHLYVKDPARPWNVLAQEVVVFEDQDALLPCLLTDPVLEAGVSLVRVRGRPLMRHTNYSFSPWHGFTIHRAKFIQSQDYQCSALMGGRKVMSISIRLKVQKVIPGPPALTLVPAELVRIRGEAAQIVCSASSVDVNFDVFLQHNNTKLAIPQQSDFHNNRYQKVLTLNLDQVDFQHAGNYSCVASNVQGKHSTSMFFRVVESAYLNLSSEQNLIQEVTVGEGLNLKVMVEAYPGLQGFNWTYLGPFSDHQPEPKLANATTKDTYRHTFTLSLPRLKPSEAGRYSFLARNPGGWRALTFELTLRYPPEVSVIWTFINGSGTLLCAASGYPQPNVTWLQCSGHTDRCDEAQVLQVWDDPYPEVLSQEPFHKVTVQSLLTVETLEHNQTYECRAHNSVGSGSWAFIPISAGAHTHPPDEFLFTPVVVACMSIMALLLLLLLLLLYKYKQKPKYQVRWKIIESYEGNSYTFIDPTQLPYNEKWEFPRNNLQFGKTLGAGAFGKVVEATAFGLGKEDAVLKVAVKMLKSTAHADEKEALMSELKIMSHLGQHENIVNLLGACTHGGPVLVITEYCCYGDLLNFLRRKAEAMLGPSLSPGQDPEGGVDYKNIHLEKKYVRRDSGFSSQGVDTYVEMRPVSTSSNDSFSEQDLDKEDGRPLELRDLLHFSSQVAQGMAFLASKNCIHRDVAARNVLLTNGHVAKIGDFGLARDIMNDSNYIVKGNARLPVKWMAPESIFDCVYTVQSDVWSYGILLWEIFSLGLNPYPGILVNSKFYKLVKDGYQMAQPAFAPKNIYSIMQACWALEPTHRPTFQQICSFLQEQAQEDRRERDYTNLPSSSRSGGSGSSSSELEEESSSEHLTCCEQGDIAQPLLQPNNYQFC
structure (smiles),measurement,setting,value
Cc1cc(NC(=O)c2cccc3cc(-c4cccc5[nH]nc(N)c45)ccc23)ccc1F [Compound I],IC50,recombinant CSF1R kinase,0.0193 ± 0.0034 µM
same,"inhibition rate of CD206 expression, U87MG tumor tissue",[1]; 10 mg/kg dose group,34.48%
same,"inhibition rate of CD206 expression, U87MG tumor tissue",[1]; 40 mg/kg dose group,70.69%
same,inhibition at 0.1 µM,"[2]; Mus musculus, 100 nM, 2 h, CSF1 50 ng/mL 15 min",57.3%
same,CSF1 stimulated phosphorylation levels of CSF1R and AKT,[2]; immunoblotting,inhibited in a dose-dependent manner
same,"expression of CD206, HT-29 tumor tissue",[3],inhibited the expression of F4/80 and CD206 in a dose-dependent manner
same,preliminary efficacy in clinical trial,[4],good therapeutic efficacy
same,"Median survival time, MST",[5]; 20 mg/kg po twice a day from Day 8,54 days and 54.0 days
same,"ILS (%), Increase in Life Span",[5]; 20 mg/kg,17.39%
same,"Median survival time, MST",[5]; 40 mg/kg po twice a day from Day 8,58.5 days
same,day of first death in the group,[5]; [6],43 days
same,day of last death in the group,[5]; [6],75 days
same,"ILS (%), Increase in Life Span",[5]; 40 mg/kg,27.17%
